# Laboratory results as given in PMC2346451 (PLoS ONE, 2008).
# pKd: −log10 of the molar value. Like-named read-outs stand apart in the source and are kept apart here.
# What was measured:
# [1] = target: rat TRPA1 (rTRPA1) (Rattus norvegicus, UniProt Q6RI86); experiment: Whole-cell patch clamp of rat TRPA1 expressed in HEK-293T cells; type: cell-based
# Procedure: (§1) Transformed human embryonic kidney-293 (HEK-293T) cells were grown in Dulbecco's modified Eagle's medium (DMEM)+F-12 supplemented with 10% fetal calf serum, and 1% penicillin/streptomycin in 5% CO2 at 37°C. Cells grown to 90% confluence in 35 mm Petri dishes were transiently transfected with plasmid DNA encoding a TRP channel construct (1 µg). Rat TRPV1 (rTRPV1) was cloned into an enhanced green fluorescent protein-containing vector (pTracer-CMV2; Invitrogen, Carlsbad, CA). Chicken TRPV1 (cTRPV1), the chicken rat TRPV1 chimera (crcTRPV1), rat TRPV2 (rTRPV2), mouse TRPV3 (mTRPV3), mouse TRPV4 (mTRPV4), rat TRPM8 (rTRPM8), and rat TRPA1 (rTRPA1), were cloned into pcDNA3 and co-transfected with enhanced green fluorescent protein (0.1 µg) to follow expression. The cTRPV1 and crcTRPV1 clones were kindly provided by Dr. David Julius. Recordings were carried out 24–36 hours after transfection. Cells were split via trypsin EDTA, plated on glass coverslips at 5–10% confluence, and used 2–3 hours later.
# (§2) Electrophysiological experiments were performed using the whole-cell patch-clamp technique at room temperature. Modified Ringer's solution with low chloride and nominal calcium contained (in mM): 130 sodium hydroxide, 5 potassium chloride, 1 magnesium chloride, 10 sodium 4-(2-hydroxyethyl)-1-piperazineethanesulfonic acid, 10 2-(N-morpholino)ethanesulfonic acid, and 20 glucose (pH 7.4; 310 milli-osmolar). […] 2 mM calcium chloride was included in the external solution where noted. To activate TRPV1, the modified Ringer's solution was made at pH 5 (low pH solution) and the chloride concentration was kept to a minimum to prevent contamination of the TRPV1 currents with acid-activated chloride currents. For recordings from heterologously expressing cells, the internal pipette solution contained (in mM): 125 cesium-Methanesulfonate, 10 cesium (1.2-bis(o-aminophenoxy)ethane-N,N,N',N'-tetraacetic acid, 8 sodium chloride, 4 magnesium adenosine triphosphate, and 10 HEPES (pH 7.2; 290 mOSM; nominal free calcium concentrations). For TRPA1 and dorsal root ganglion recordings, the internal pipette solution contained (in mM): 110 cesium-Methanesulfonate, 0.5 cesium4BAPTA, 8 sodium chloride, 0.2 calcium chloride, 4 magnesium-ATP, 4 sodium-GTP, and 10 4-(2-hydroxyethyl)-1-piperazineethanesulfonic acid (pH 7.2; 290 mOSM; 100 nM free calcium internal). MaxChelator was used to calculate the free calcium concentration (http://www.stanford.edu/cpatton/maxc.html).
# (§3) Recordings were obtained using an Axopatch 200B amplifier, Digidata 1322A analog-to-digital converter, and pClamp 8.01 software (Molecular Devices, Union City, CA). Data were low-pass filtered at 2 kHz and digitized at 5 kHz. Borosilicate glass pipettes (World Precision Instruments, Sarasota, FL) were typically 3 MΩ pipette resistance after fire polishing. Cell capacitance was measured for each cell, and access resistance compensated to ∼80%. Recordings were begun ∼5 minutes after initial rupture to ensure initial steady state conditions. Current-voltage (I-V) relations were obtained using a ramp protocol. Voltage ramps (400 ms) from −100 to +40 or +100 mV were applied every 1–2 seconds and the holding potential was either −70 mV or 0 mV (see Figure Legends). A 40 ms step was added at the beginning and end of the ramp (i.e. at −100 mV, +40 mV or +100 mV). Liquid junction potentials were not corrected.
# (§4) The dose response curves were fit with the Hill equation, where [drawing 8] and [A] is the concentration of agonist or blocker, N is the Hill coefficient, and KD is the [A] for Imeasured/Imax = 0.5. The term apparent dissociation constant is used in place of the half concentration of excitation and inhibition. […] Averaged data are presented as mean±standard error (S.E.) throughout. Statistical analysis included paired and unpaired Student's t-test comparisons of the data; p values are reported in the text.
# [2] = target: T1, mouse TRPV3 (mTRPV3) (Mus musculus, UniProt Q8K424); experiment: Whole-cell patch clamp of mouse TRPV3 expressed in HEK-293T cells; type: cell-based; conditions: for Increase of agonist-evoked current prior to onset of inhibition: citral 1 mM, n = 7
# T1 sequence (Q8K424 1-791): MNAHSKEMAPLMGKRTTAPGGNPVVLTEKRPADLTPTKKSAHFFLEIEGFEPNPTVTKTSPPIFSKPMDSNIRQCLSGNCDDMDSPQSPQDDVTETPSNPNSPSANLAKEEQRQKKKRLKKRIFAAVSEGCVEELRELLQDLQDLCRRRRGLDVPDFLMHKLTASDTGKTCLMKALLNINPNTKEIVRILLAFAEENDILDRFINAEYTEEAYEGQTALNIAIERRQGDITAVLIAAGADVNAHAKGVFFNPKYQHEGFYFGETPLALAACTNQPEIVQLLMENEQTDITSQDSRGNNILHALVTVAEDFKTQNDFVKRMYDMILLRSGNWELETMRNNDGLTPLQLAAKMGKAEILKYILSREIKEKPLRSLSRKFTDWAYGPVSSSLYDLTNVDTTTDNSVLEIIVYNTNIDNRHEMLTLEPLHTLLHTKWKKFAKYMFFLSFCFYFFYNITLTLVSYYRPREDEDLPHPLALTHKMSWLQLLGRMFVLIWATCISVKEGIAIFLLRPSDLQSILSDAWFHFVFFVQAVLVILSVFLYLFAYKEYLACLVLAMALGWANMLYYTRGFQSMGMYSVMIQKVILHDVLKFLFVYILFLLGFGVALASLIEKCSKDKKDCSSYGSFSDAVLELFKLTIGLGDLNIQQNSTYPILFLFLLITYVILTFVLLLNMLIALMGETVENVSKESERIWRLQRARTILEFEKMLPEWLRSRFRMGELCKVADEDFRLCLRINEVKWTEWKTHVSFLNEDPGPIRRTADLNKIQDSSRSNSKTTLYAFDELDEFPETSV
# Procedure: as §1, §2, §3, §4
# Chain of rat TRPA1 (rTRPA1) (Q6RI86 whole entry): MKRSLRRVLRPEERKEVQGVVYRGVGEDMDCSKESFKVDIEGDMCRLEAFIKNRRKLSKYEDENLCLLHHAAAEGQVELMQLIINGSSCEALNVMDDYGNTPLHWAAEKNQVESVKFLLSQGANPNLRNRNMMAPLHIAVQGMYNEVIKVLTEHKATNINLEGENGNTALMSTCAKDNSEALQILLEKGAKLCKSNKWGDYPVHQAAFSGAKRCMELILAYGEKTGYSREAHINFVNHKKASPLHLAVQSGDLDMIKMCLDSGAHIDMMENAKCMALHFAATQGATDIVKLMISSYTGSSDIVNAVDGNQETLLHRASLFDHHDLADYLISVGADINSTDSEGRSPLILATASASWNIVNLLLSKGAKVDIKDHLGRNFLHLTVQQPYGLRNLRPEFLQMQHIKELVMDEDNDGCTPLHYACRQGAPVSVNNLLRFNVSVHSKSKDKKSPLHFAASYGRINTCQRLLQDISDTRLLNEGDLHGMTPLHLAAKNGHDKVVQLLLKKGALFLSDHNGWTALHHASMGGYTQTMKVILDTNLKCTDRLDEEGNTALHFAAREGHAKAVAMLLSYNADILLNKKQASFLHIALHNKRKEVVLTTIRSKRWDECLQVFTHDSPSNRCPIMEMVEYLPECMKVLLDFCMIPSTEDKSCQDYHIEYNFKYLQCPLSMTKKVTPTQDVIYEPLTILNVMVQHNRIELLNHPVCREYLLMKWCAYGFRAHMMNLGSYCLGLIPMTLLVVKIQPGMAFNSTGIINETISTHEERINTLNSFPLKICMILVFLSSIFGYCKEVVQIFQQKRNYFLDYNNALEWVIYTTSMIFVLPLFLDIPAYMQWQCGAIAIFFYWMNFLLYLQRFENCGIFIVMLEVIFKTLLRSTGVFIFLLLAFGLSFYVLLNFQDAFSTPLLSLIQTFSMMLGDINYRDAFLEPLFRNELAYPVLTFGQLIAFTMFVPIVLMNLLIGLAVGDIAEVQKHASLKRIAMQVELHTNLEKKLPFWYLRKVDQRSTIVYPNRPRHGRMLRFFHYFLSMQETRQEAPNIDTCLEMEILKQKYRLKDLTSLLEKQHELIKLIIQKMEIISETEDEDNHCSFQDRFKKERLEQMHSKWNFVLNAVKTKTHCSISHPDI
structure (smiles),measurement,setting,value
"CC(C)=CCCC(C)=CC=O [citral, 3,7-dimethyl-2,6-octadienal]",Reversibility of citral inhibition of agonist-evoked current,[1]; allyl isothiocyanate-evoked,rapidly reversed
same,Effect of citral addition on agonist-induced current,"[1]; allyl isothiocyanate-induced, n = 10",not increased
same,TRPA1 current activation by allyl isothiocyanate recovered after citral washout,"[1]; at 30s, n = 5",60±16%
same,Activation threshold,"[1]; citral activation, bell-shaped dose response, 2 mM external calcium",threshold ∼200 µM
same,Hill coefficient (inhibition),[1]; citral block of allyl isothiocyanate-evoked current,1.0
same,Agonist efficacy IAITC (300 µM)/Icitral (300 µM),"[1]; fold larger, −100 mV, n = 27 and 9",IAITC (300 µM)/Icitral (300 µM) 1.5 fold larger (n = 27 and 9; −100 mV)
same,pKd,"[1]; read-out: Inhibition KD, app",3.60
same,Increase of ITRPA1 above baseline,[1]; −100 mV,3.1±0.8 fold
same,Hill coefficient (activation),[2],22.3
same,Reversibility of citral inhibition of agonist-evoked current,[2],essentially irreversible
same,Increase of agonist-evoked current prior to onset of inhibition,[2]; +100 mV,1.3±0.1 fold
same,Increase of agonist-evoked current prior to onset of inhibition,[2]; −100 mV,1.7±0.3 fold
same,pKd,"[2]; citral activation, nominal external calcium, read-out: Activation KD, app",3.03
same,Hill coefficient (inhibition),[2]; citral block of 2-aminoethyldiphenyl borate-evoked current,4.0
same,pKd,"[2]; citral block of current evoked by 700 µM 2-aminoethyldiphenyl borate, read-out: Inhibition KD, app",3.33
same,Agonist efficacy I2-APB (100 µM)/Icitral (1 mM),"[2]; fold larger, −40 mV, n = 6",I2-APB (100 µM)/Icitral (1 mM) 25±14 fold larger (n = 6; −40 mV)
same,Time for >50% inhibition of peak TRP current in continued presence of citral,[2]; n = 6,≤ 6 s
same,Increase of inward ITRPV3 above baseline,[2]; −40 mV,38 fold
